Data as given in ChEMBL document CHEMBL3301361, “Experimental in vitro DMPK and physicochemical data on a set of publicly disclosed compounds”.
In brackets after ≈: the same amount, converted by molar mass.

Assays:
physchem [1] = conditions: octan-1-ol/water
physchem [2] = conditions: pH 7.4 buffer
in vitro [3] = conditions: SD, HW or BN, rat, plasma
in vitro [4] = conditions: human, plasma

Structure (SMILES) | fraction unbound at 5 h (in vitro [3]) | other results
CC(C)(C)OC(=O)N1CCC(OCc2nc(-c3ccncc3)no2)CC1 | 0.0752 | logD (physchem [1]; pH 7.4, LogD7.4): 3; solubility thermodynamic (physchem [2]): 269 µM (≈ 97 µg/mL)
NCCCCN(Cc1nc2ccccc2[nH]1)C1CCCc2cccnc21 (stereo not drawn) | 0.371 | logD (physchem [1]; pH 7.4, LogD7.4): 0.83
O=[N+]([O-])c1c(Nc2ccc(-n3cncn3)cc2)ncnc1N1CCC(Sc2ccccn2)CC1 | 0.0029 | 
COCCNCC(=O)NC12CC3CC(CC(C3)C1)C2 | 0.483 | fraction unbound at 5 h (in vitro [4]; PPB): 0.5
O=C(Nc1cccc(Cl)c1)Nc1nnc(-c2ccncc2)s1 | 0.0046 | 
Cc1cccc2cc(CN(Cc3ccco3)C(=O)Nc3cccc(C#N)c3)c(Cl)nc12 | 0.0009 | 
Cc1ccc(-c2nnc(Nc3ccc(C(=O)N(C)C)cc3)c3ccccc23)cc1S(=O)(=O)N(C)C | 0.0209 | 
Cc1csc2c(N3CCN(C(=O)c4ccc(C(C)(C)C)cc4)CC3)ncnc12 | 0.0043 | 
COc1ccc(-c2nc(-c3ccccn3)no2)cc1 | 0.0544 | 
Fc1ccc(-c2cc(C(F)(F)F)nc(-n3cc(Cl)cn3)n2)cc1 | 0.0048 | 
Cc1ccc(S(=O)(=O)Nc2ccc3nc(C)sc3c2)cc1 | 0.0053 | fraction unbound at 5 h (in vitro [4]): 0.0021
Cc1nc2ccc(NS(=O)(=O)c3ccc(C)c(C)c3)cc2s1 | 0.0024 | 
Cc1ccc(S(=O)(=O)N(C)c2ccc3sc(C)nc3c2)cc1 | 0.0067 | 
CCCC(=O)Nc1ccc(Cl)c(-c2nc3ncccc3o2)c1 | 0.0358 | 
CC(C)(C)OC(=O)NC[C@H]1CC[C@H](CNC(=O)c2cc(-c3ccc(CN)cc3)nc3ccccc23)CC1 | 0.0139 | 
CC(O)(C(=O)Nc1ccc(S(=O)(=O)N2CCOCC2)cc1)C(F)(F)F (stereo not drawn) | 0.151 | fraction unbound at 5 h (in vitro [4]; PPB): 0.371
CCOc1ccc2oc(C(=O)NC(CCSC)c3nc4ccccc4[nH]3)c(C)c2c1 (stereo not drawn) | 0.009 | 
C[C@H](Nc1nc(Nc2cc(C3CC3)[nH]n2)c(F)cc1C#N)c1ccc(F)cc1 | 0.002 | 
O=c1[nH]c2c(O)ccc([C@@H](O)CNCCCOCCOCCc3ccccc3)c2s1 | 0.465 | logD (physchem [1]; pH 7.4, LogD7.4): 1.09
CN(C)CCC1CCN(c2cc(C(=O)NC[C@H]3CC[C@H](COC(=O)NC(C)(C)C)CC3)c3ccccc3n2)CC1 | 0.0328 | 
CC(C)(C)OC(=O)NC[C@H]1CC[C@H](CNC(=O)c2ccnc(-c3ccccc3)c2)CC1 | 0.0095 | 
CC(C)(C)OC(=O)NC[C@H]1CC[C@H](CNC(=O)c2cc(-c3ccncc3)nc3ccccc23)CC1 | 0.02 | 
CC(C)(C)OC(=O)NC[C@H]1CC[C@H](CNC(=O)c2cc(-c3cccc(CN)c3)nc3ccccc23)CC1 | 0.0171 | 
CC(C)(C)OC(=O)NC[C@H]1CC[C@H](CNC(=O)c2cc(N3CCC(CCN)CC3)nc3ccccc23)CC1 | 0.0321 | 
CC(C)(C)[C@@H](O)C(=O)N1CCC[C@H]1C(=O)NCc1cc(Cl)ccc1CN | 0.5 | fraction unbound at 5 h (in vitro [4]; PPB): 0.58
Nc1nc(-c2nn(Cc3ccccc3F)c3ncccc23)nc(N)c1N1CCOCC1 | 0.117 | fraction unbound at 5 h (in vitro [4]): 0.0768
C[C@@H]1c2c([nH]c3ccc(C(F)(F)F)cc23)C[C@@H]2CCN(CCN3CCOCC3)C[C@H]21 | 0.0313 | logD (physchem [1]; pH 7.4, LogD7.4): 2.87

Structure (SMILES) | fraction unbound at 5 h (in vitro [3]) | other results
O=C(c1ccc(-c2ccc(Cl)cc2)o1)N(Cc1ccccn1)c1ccc(N2CCNCC2)cc1 | 0.0219 | logD (physchem [1]; pH 7.4, LogD7.4): 3
COCCNCc1cccc(CCNC[C@H](O)c2ccc(O)c3[nH]c(=O)sc23)c1 | 0.197 | logD (physchem [1]; pH 7.4, LogD7.4): 0.01
CN(C(=O)Cc1ccc(S(C)(=O)=O)cc1)C1CCN(Cc2ccc(C(F)(F)F)cc2)CC1 | 0.16 | solubility thermodynamic (physchem [2]): 363 µM (≈ 170 µg/mL)
CCOc1ccc([C@@H](C)Nc2nc(N3CCN(C(C)=O)CC3)nc3c2CN(C(C)C)C3=O)cc1F | 0.258 | fraction unbound at 5 h (in vitro [4]; PPB): 0.334
Nc1nc2ccc(C(=O)c3ccccc3)cc2[nH]1 | 0.0736 | logD (physchem [1]; pH 7.4, LogD7.4): 2.29
Cc1ccc(NC(=O)c2cccc(N3CCOCC3)c2)cc1-n1cnc2ccc(N3CCN(C)CC3)cc2c1=O | 0.103 | logD (physchem [1]; pH 7.4, LogD7.4): 2.69; solubility thermodynamic (physchem [2]): 427 µM (≈ 230 µg/mL)
CN(Cc1ccc(-c2ccccc2S(N)(=O)=O)cc1)C(=O)[C@@H]1CCC[C@H]1C(=O)NCc1ccc(OC(F)(F)F)cc1 | 0.003 | 
COC[C@H](C)Oc1cc(O[C@@H](C)Cc2ccccc2)cc(C(=O)Nc2ccc(C(=O)O)cn2)c1 | 0.0042 | logD (physchem [1]; pH 7.4, LogD7.4): 1.5; solubility thermodynamic (physchem [2]): 1480 µM (≈ 687 µg/mL)
CC(C)C(NC(=O)c1cc(Cl)ccc1C(F)(F)F)C(=O)c1ccc([N+](=O)[O-])cc1 (stereo not drawn) | 0.024 | 
COc1cc(-n2cnc3cc(-c4ccc(Cl)cc4)sc3c2=O)ccc1OCCN1CCCC1 | 0.0099 | logD (physchem [1]; pH 7.4, LogD7.4): 2.74
O=c1cc(N2CCOCC2)nc(NCc2ccccc2)[nH]1 | 0.19 | fraction unbound at 5 h (in vitro [4]; PPB): 0.266
Cc1c(-c2cc3ccccc3o2)oc(=O)c(C)c1O | 0.0026 | 
C[S+]([O-])Cc1ccc(C(=O)Nc2cccnc2C(=O)NCC2CCC2)c2ccccc12 (stereo not drawn) | 0.0119 | fraction unbound at 5 h (in vitro [4]): 0.013
COc1ccc(NC(=O)c2ccc(C[S+](C)[O-])c3ccccc23)c(C(=O)NCC2CCOCC2)n1 (stereo not drawn) | 0.0437 | fraction unbound at 5 h (in vitro [4]): 0.0544
O=C(NCC1CCC1)c1nc(OCCOCCO)ccc1NC(=O)c1ccnc2ccccc12 | 0.03 | 
COc1ccc(NC(=O)c2ccnc3ccccc23)c(C(=O)NCC2CCC2)n1 | 0.0009 | 
CC(=O)N1CCN(c2nc(N[C@H](C)c3cnc4ccccc4c3)c3c(n2)C(=O)N(C(C)C)C3)CC1 | 0.0119 | 
O=S(=O)(Nc1ncns1)c1cc(F)c(Oc2cc(F)c(Cl)cc2-c2cn[nH]c2)cc1F | 0.002 | 
O=S(=O)(Nc1ncns1)c1cc(F)c(Oc2ccc(Cl)cc2-c2cn[nH]c2)cc1F | 0.001 | 
CC(C)(C)NC(=O)CN1CCN(CC(=O)NC23CC4CC(CC(C4)C2)C3)CC1 | 0.309 | fraction unbound at 5 h (in vitro [4]; PPB): 0.299
N#Cc1ccc2[nH]c(-c3ccc(F)cc3)c(CCCC(=O)NS(=O)(=O)C(F)(F)F)c2c1 | 0.0661 | solubility thermodynamic (physchem [2]): 309 µM (≈ 140 µg/mL)
O=[N+]([O-])c1ccc(-c2nc(-c3ccccc3)c(-c3ccccc3)[nH]2)cc1 | 0.0006 | 
C=CCN(C)CCCCCCOc1ccc(C(=O)c2ccc(Br)cc2)c(F)c1 | 0.0006 | 
N=C(N)c1ccc2nc(-c3cccc(-c4ccccc4)c3O)[nH]c2c1 | 0.0139 | 
O=C(Nc1ccccc1)Nc1nc(-c2ccccc2)cs1 | 0.0005 | 
O=C(c1cc(Cc2n[nH]c(=O)c3ccccc23)ccc1F)N1CCCNCC1 | 0.597 | logD (physchem [1]; pH 7.4, LogD7.4): 0.1
COc1cc2c(cc1OC)CN(CCc1ccc(NC(=O)c3cccc4c(=O)c5cccc(OC)c5[nH]c34)cc1)CC2 | 0.0179 | 

Structure (SMILES) | fraction unbound at 5 h (in vitro [3]) | other results
O=C(COc1cccc(Cl)c1)NC1CN(Cc2ccn(-c3ccc(C(F)(F)F)cc3)c2)C1 | 0.0043 | 
COc1cc(C(C)C)c(Oc2cnc(N)nc2N)cc1I | 0.0383 | 
O=C(CC1CCCCCC1)Nc1cccc2c(=O)n([C@H]3CCNC3)ccc12 | 0.232 | logD (physchem [1]; pH 7.4, LogD7.4): 1.15
O=C(Cc1ccc(F)c(C(F)(F)F)c1)Nc1cccc2c(=O)n([C@@H]3CNC[C@H]3O)ccc12 | 0.0948 | logD (physchem [1]; pH 7.4, LogD7.4): 1.33
C[C@@](O)(C(=O)Nc1ccc(S(C)(=O)=O)cc1Cl)C(F)(F)F | 0.16 | logD (physchem [1]; pH 7.4, LogD7.4): 2.08
COc1ccc(CN2CCc3c([nH]c4ccccc34)C2)cc1OC | 0.0418 | logD (physchem [1]; pH 7.4, LogD7.4): 3.1; solubility thermodynamic (physchem [2]): 51.3 µM (≈ 16.5 µg/mL)
O=C(O)c1cc(O)cc(O)c1 [3,5-DIHYDROXYBENZOIC ACID] | 0.824 | 
COc1cc(F)c(C(C)C)cc1-c1ccc(C(F)(F)F)cc1CN1C(=O)O[C@H](c2cc(C(F)(F)F)cc(C(F)(F)F)c2)[C@@H]1C [ANACETRAPIB] | 0.0328 | 
C[C@@H](O[C@H]1OCCN(Cc2n[nH]c(=O)[nH]2)[C@H]1c1ccc(F)cc1)c1cc(C(F)(F)F)cc(C(F)(F)F)c1 [APREPITANT] | 0.0023 | 
CNC(=O)c1ccc(Oc2ccc3c(c2)CCN(C2CCC2)CC3)nc1 [GSK189254] | 0.523 | logD (physchem [1]; pH 7.4, LogD7.4): 1.45
O=C(O)CCc1ccc(NCc2cccc(Oc3ccccc3)c2)cc1 [GW9508] | 0.0052 | logD (physchem [1]; pH 7.4, LogD7.4): 2.1
O=C(O)Cc1cn(-c2ccccc2)nc1-c1ccc(Cl)cc1 [LONAZOLAC] | 0.0018 | 
CN1CCC(N2CCN(C(=O)[C@H](NC(=O)c3ccc4cc[nH]c4c3)c3ccccc3)CC2)CC1 [LY-517717] | 0.54 | 
NCCCCN(Cc1nc2ccccc2[nH]1)[C@H]1CCCc2cccnc21 [MAVORIXAFOR] | 0.244 | 
COc1nc(C)nc(Cl)c1N=C1NCCN1 [MOXONIDINE] | 0.886 | 
O=S(=O)(Nc1nncs1)c1cc(Cl)c(Oc2ccc(C(F)(F)F)cc2-c2ccnnc2)cc1F [PF-05186462] | 0.02 | logD (physchem [1]; pH 7.4, LogD7.4): 1.15
O=c1[nH]c2ccccc2n1C1CCN(CCCC(c2ccc(F)cc2)c2ccc(F)cc2)CC1 [PIMOZIDE] | 0.003 | 
CC(C)NCC(O)COc1cccc2[nH]ccc12 (stereo not drawn) [PINDOLOL] | 0.586 | logD (physchem [1]; pH 7.4): -0.12
CC(C)C[C@H](CN)CC(=O)O [PREGABALIN] | 0.5 | 
CC(CN1c2ccccc2Sc2ccccc21)N(C)C (stereo not drawn) [PROMETHAZINE] | 0.0705 | logD (physchem [1]; pH 7.4, LogD7.4): 2.67
COc1ccccc1OCC(O)CN1CCN(CC(=O)Nc2c(C)cccc2C)CC1 (stereo not drawn) [RANOLAZINE] | 0.465 | 
CC[C@H](NC(=O)c1c(O)c(-c2ccccc2)nc2ccccc12)c1ccccc1 [TALNETANT] | 0.0005 | logD (physchem [1]; pH 7.4, LogD7.4): 3.91
CCC(C)(C)C(=O)O[C@H]1C[C@@H](C)C=C2C=C[C@H](C)[C@H](CC[C@@H](O)C[C@@H](O)CC(=O)O)[C@H]21 [TENIVASTATIN] | 0.024 | logD (physchem [1]; pH 7.4, LogD7.4): 1.55
CCc1nn(C2CCCC2)c2c1CCn1c(-c3cccs3)nnc1-2 [TOFIMILAST] | 0.0477 | solubility thermodynamic (physchem [2]): 22.4 µM (≈ 7.6 µg/mL)
Cc1ccc(OCC(O)C(C)NC(C)C)c2c1CCC2 (stereo not drawn) [ZENIDOLOL] | 0.216 | 
